Measured values from patent USH1168H, “Inhibitors of protein kinase C activity as protectors against septic shock and reducers of ARDS” (priority 1991, dated 1993).
“Also recorded” adds a separate entry of the source.

Columns and labels:
[1] = tested on: rat aortic rings; experiment: Direct contraction of rat aortic rings by phorbol dibutyrate; type: cell-based; parameters: Emax: dose or concentration left out as unconfirmed; settings: for EC50: read-out: EC50 for contraction by PDB
Procedure: Four rings were prepared from each rat and one ring allocated into each medium formulation. Data is presented as in FIG. 1.
(§1) Tissue preparation and incubation. Male Sprague-Dawley rats (250-350 g, Taconic Farms, Germantown, N.Y.) were used. Rat thoracic aortic rings were prepared and incubated as detailed by McKenna (14). In brief, 4 or 6 rings were prepared from each rat. Care was taken during dissection to maintain the patency of the endothelium. Some aortas were de-endothelialized before sectioning into rings by perfusion with phosphate buffered saline (PBS) containing 1% deoxycholate for 30 sec followed by a PBS and bubble rinse for 5 min. Rings were incubated in DME (Dulbecco's Modified Eagle's medium) supplemented with 1% fetal calf serum, 100 μg/ml streptomycin, and 100 U/ml penicillin. During incubation, the rings were exposed to combinations of LPS (10 or 35 ng/ml), H7 (25 μM), HA1004 (N-(2-guanidinoethyl)-5-isoquinolinesulfonamide) (25 μM), sphingosine (20 μM), or their vehicles. […] Rings used in measures of contractile performance were placed individually in Petri dishes containing 1.2 ml DME and were distributed so that tissue isolated from each aorta was allocated to every combination of treatments within an experiment. […] All tissue isolated from an aorta (six rings) was allocated to a single treatment. The media and rings were rotated gently for 16-18 hr in an incubator at 37° C. under a 95% O2 -5% CO2 atmosphere.
(§2) Measurement of aortic ring contraction. After incubation, rings were mounted in tissue baths, equilibrated, and pre-contracted as previously detailed (14). These procedures required approximately 90 min. Rings were maintained in Krebs Ringer Bicarbonate buffer (KRB, 14). Contractions by six or eight rings were measured simultaneously and recorded on multichannel strip chart recorders. […] Other rings were contracted by withdrawing KRB from the tissue baths and adding increasing volumes of a high KCl KRB (120 mM, made by equimolar substitution of KCl for NaCl) to the baths to yield final KCl concentrations of 10 to 80 mM. All rings were blotted and weighed after experiments were completed.
(§3) Statistics. […] Tests for differences between EC50 values were based on log EC50 values (17). EC50 values were then converted to […] means to allow expression as nanomolar concentrations. Examination of differences among four or six treatment means was by randomized blocks analysis of variance; if significant differences were present, then pairs of means were tested by Student-Newman-Keuls a posteriori tests (18). Paired t-tests were used to assess differences between two treatment means. […] Differences with probabilities of 0.05 or less were accepted as significant. All data are expressed as means±SEM.

[2] = tested on: rat aortic rings; experiment: NE-induced contraction of rat aortic rings after 16 h incubation with phorbol dibutyrate; type: cell-based; parameters: contractions to NE; vascular suppression: dose or concentration left out as unconfirmed; settings: for EC50: Rattus norvegicus, 16 h
Procedure: (§4) (Panel B) Contraction to KCl by rings incubated and denoted with the same symbols as detailed above. Four rings were prepared from each rat and one ring allocated into each medium formulation to evaluate responses to NE. Rings were similarly prepared to determine responses to KCl. Data presented as in FIG. 1. N=6 rats apiece for assessment of responses to NE and KCl.
(§5) (Panel B) Contraction to KCl by rings incubated and denoted with the same symbols as detailed above. Four rings were prepared from each rat and one ring allocated into each medium formulation. Data is presented as in FIG. 1. N=8 rats for assessment of responses to both NE and KCl.
as §1, §2, §3

[3] = tested on: rat aortic rings; experiment: KCl-induced contraction of rat aortic rings after 16 h incubation with phorbol dibutyrate; type: cell-based; settings: for EC50: Rattus norvegicus, 16 h
Procedure: as §4, §5, §1, §2, §3

[4] = tested on: PKC; settings: literature (33,34); cited from earlier work
[5] = tested on: platelets; settings: pretreatment; stimulation with thrombin, OAG, linoleic or linolelaidic acid (25); cited from earlier work
[6] = tested on: endothelial cells; settings: literature (1, 2); cited from earlier work
[7] = tested on: intact endothelium rat aortic rings; experiment: NE-induced contraction of intact rat aortic rings after 16 h incubation with LPS and/or PKC inhibitors; type: cell-based; settings: for EC50: Rattus norvegicus, 16 h, intact endothelium, read-out: EC50 value for NE stimulated contraction (EC50 of the agonist NE)
Procedure: FIG. 1 is a graph showing contraction to cumulative doses of NE by rat aortic rings incubated for 16 hr in combinations of control, LPS (endotoxin or lipopolysaccharide), H7, and N-(2-guanidinoethyl)-5-isoquinolinesulfonamide (HA1004; a negative control for H7) treated media. (Panel A) Responses by rings incubated in medium only (open circles), medium plus H7 (25 μM, closed circles), medium containing LPS (10 ng/ml, open triangles), and medium containing LPS plus H7 (closed triangles). (Panel B) For clarity in presentation, responses by rings incubated in medium only (open circles) and LPS treated medium (open triangles) are reproduced from Panel A. Additional rings were incubated in medium plus HA1004 (25 μM, closed circles), and medium containing LPS plus HA1004 (closed triangles). Six rings were prepared from each rat and one ring allocated into each medium formulation. […] The curves are the best fit of the data by nonlinear least squares to a polynomial model. N=8 rats.
as §1, §2, §3

[8] = tested on: intact endothelium rat aortic rings; experiment: KCl-induced contraction of intact rat aortic rings after 16 h incubation with LPS and/or PKC inhibitors; type: cell-based; settings: for EC50: Rattus norvegicus, 16 h, intact endothelium, read-out: EC50 value for KCl stimulated contraction (EC50 of the agonist KCl)
Procedure: FIG. 2 is a graph showing contraction to cumulative doses of KCl by rat aortic rings incubated for 16 hr in combinations of control, LPS, H7, and HA1004 treated media. (Panel A) Response by rings incubated in medium only (open circles), medium plus H7 (25 μM, closed circles), medium containing LPS (10 ng/ml, open triangles), and medium containing LPS plus H7 (closed triangles). (Panel B) For clarity in presentation, responses by rings incubated in medium only (open circles) and LPS treated medium (open triangles) are reproduced from Panel A. Additional rings were incubated in medium plus HA1004 (25 μM, closed circles), and medium containing LPS plus HA1004 (closed triangles). Rings were prepared and data is presented as described in FIG. 1. N=6 rats.
as §1, §2, §3

[9] = tested on: endothelial cells; settings: literature (3); cited from earlier work
[10] = tested on: deendothelialized rat aortas; settings: literature (26); cited from earlier work
[11] = tested on: human neutrophils; settings: PMA alone (31); cited from earlier work
[12] = tested on: Rabbit aortic smooth muscle cells; settings: literature (29); cited from earlier work
[13] = tested on: Rabbit aortic smooth muscle cells; settings: literature; cited from earlier work
[14] = LPS 10 ng/ml plus inhibitor 25 μM
[15] = LPS-treated media (10 ng/ml), alone or plus inhibitor 25 μM
[16] = control media (no LPS) plus inhibitor 25 μM
[17] = inhibitor 25 μM by itself, no LPS

CCCC(=O)O[C@@H]1[C@@H](C)[C@@]2(O)[C@@H](C=C(CO)C[C@@]3(O)C(=O)C(C)=C[C@@H]23)[C@@H]2C(C)(C)[C@]12OC(=O)CCC [4α-PDB, 4-α-phorbol-12,13-dibutyrate]
contraction of aortic rings by 4α-PDB itself ([1]; concentrations up to 10 μM (data not shown)): could not contract aortic rings at concentrations up to 10 μM | contractions to NE; vascular suppression [2]: significantly impaired contractions to NE and KCl; also recorded: equally effective at causing vascular suppression | alterations in EC50 values for NE ([2]; 10 μM 4α-PDB): no significant alterations in EC50 values for the agonists | EC50 ([2]; read-out: EC50 value for NE contraction (EC50 of the agonist NE), rings incubated with 4α-PDB 10.0 μM, 16 h): 0.286 µM | alterations in EC50 values for KCl ([3]; 10 μM 4α-PDB): no significant alterations in EC50 values for the agonists | contractions to KCl ([3]; 10 μM 4α-PDB): significantly impaired contractions to NE and KCl | EC50 ([3]; read-out: EC50 value for KCl contraction (EC50 of the agonist KCl), rings incubated with 4α-PDB 10.0 μM, 16 h): 28000 µM

lipid A
activation of PKC in vitro [4]: can directly activate PKC in vitro

polymyxin B
platelet aggregation after stimulation [5]: blocked

CN[C@@H]1C[C@H]2O[C@@](C)([C@@H]1OC)n1c3ccccc3c3c4c(c5c6ccccc6n2c5c31)C(=O)NC4 [staurosporine]
adhesive proteins on endothelial cell surfaces [6]: reduced | platelet aggregation after stimulation [5]: blocked

CC1CNCCN1S(=O)(=O)c1cccc2cnccc12 (stereo not shown) [H7, 1-(5-isoquinolinylsulfonyl)-2-methyl piperazine]
EC50 and Emax (sensitivity and maximum contraction) to NE versus control tissue [7, 14]: not significantly different from control tissue | EC50 [7, 15]: 0.099 µM | EC50 [7, 16]: 0.051 ± 0.015 µM | blocking of LPS effects on contraction to NE ([7]; co-incubation, inhibitor 25 μM, LPS 10 ng/ml): blocked | contractile function / sensitivity to NE [7, 17]: little change in contractile function | abrogation of LPS effects on contractile function ([7]; intact rings, H7 25 μM): clearly abrogated the majority of the deleterious effects of LPS on rat aortic tissue contractile function | EC50 and Emax values to KCl versus control tissue [8, 14]: did not vary significantly from control tissue | protection against LPS-induced contractile dysfunction (KCl) [8, 14]: shielded the tissue from LPS-induced contractile dysfunction | EC50 [8, 15]: 32000 µM | EC50 [8, 16]: 28000 ± 1000 µM | maximum contraction to KCl [8, 17]: significant increases in maximum contraction | sensitivity to KCl [8, 17]: no enhancement in sensitivity to KCl | adhesive proteins on endothelial cell surfaces [6]: reduced | endothelial cell permeability response to inflammatory agents [9]: abrogated | platelet aggregation after stimulation [5]: blocked | blocking of PDB induced contraction [10]: ineffective blocker of PDB induced contraction | inhibition of KCl elicited contraction [10]: significantly inhibits KCl elicited contraction

CCCCCCCCCCCCCC(=O)O[C@@H]1[C@@H](C)[C@@]2(O)[C@@H](C=C(CO)C[C@]3(O)C(=O)C(C)=C[C@@H]23)[C@@H]2C(C)(C)[C@]12OC(C)=O [PMA]
synthesis of PAF or LTB4 [11]: could not cause synthesis of either PAF or LTB4

CCCC(=O)O[C@@H]1[C@@H](C)[C@@]2(O)[C@@H](C=C(CO)C[C@]3(O)C(=O)C(C)=C[C@@H]23)[C@@H]2C(C)(C)[C@]12OC(=O)CCC [PDB, 4β-phorbol-12,13-dibutyrate]
EC50 ([1]; Rattus norvegicus, 16 h): 0.041 ± 0.003 µM | EC50 ([1]; Rattus norvegicus): 0.032 ± 0.004 µM | Emax ([1]; Rattus norvegicus, read-out: maximum contraction caused by PDB): > 90% | EC50 ([2]; read-out: EC50 value for NE contraction (EC50 of the agonist NE), rings incubated with 4β-PDB 0.1 μM, 16 h): 0.056 µM | EC50 ([2]; read-out: EC50 value for NE contraction (EC50 of the agonist NE), rings incubated with 4β-PDB 1.0 μM, 16 h): 0.184 µM | EC50 ([2]; read-out: EC50 value for NE contraction (EC50 of the agonist NE), rings incubated with 4β-PDB 10.0 μM, 16 h): 0.283 µM | EC50 ([3]; read-out: EC50 value for KCl contraction (EC50 of the agonist KCl), rings incubated with 4β-PDB 0.1 μM, 16 h): 22000 µM | EC50 ([3]; read-out: EC50 value for KCl contraction (EC50 of the agonist KCl), rings incubated with 4β-PDB 1.0 μM, 16 h): 27000 µM | EC50 ([3]; read-out: EC50 value for KCl contraction (EC50 of the agonist KCl), rings incubated with 4β-PDB 10.0 μM, 16 h): 36000 µM

CCCCCCCCCCCCCC(=O)O[C@@H]1[C@@H](C)[C@@]2(O)[C@@H](C=C(CO)C[C@]3(O)C(=O)C(C)=C[C@@H]23)[C@@H]2C(C)(C)[C@]12OC(C)=O [TPA]
whole blood serum induced intracellular Ca^2+ mobilization [12]: inhibits whole blood serum induced intracellular Ca^2+ mobilization | cell proliferation [13]: modulates cell proliferation
